According to patent publication US7820817B2, “Modulators of muscarinic receptors” (Vertex Pharmaceuticals Incorporated, priority 2004, dated 2010):

Test system: at least one muscarinic receptor, M1, M2, M3, M4
Experiment: Muscarinic modulation activity (Table 3)
Type: cell-based
Design: key: +++: exhibited muscarinic modulation activity for at least one muscarinic receptor, M1, M2, M3, M4, at a concentration of less than 5 μM; ++: exhibited muscarinic modulation activity for at least one muscarinic receptor, M1, M2, M3, M4, at a concentration of between 30 μM and 5 μM; +: exhibited muscarinic modulation activity for at least one muscarinic receptor, M1, M2, M3, M4, at a concentration of greater than 30 μM; −: were not assayed or did not exhibit muscarinic modulation activity for at least one muscarinic receptor, M1, M2, M3, M4, at the concentration at which the assay was performed
Conditions: concentration at which modulation of at least one muscarinic receptor, M1, M2, M3, M4, was exhibited; CHO cells
Experimental: CHO cells expressing muscarinic receptors (M1 to M5) are grown as monolayers in tissue culture flasks at 37° C. in a humidified atmosphere containing 5% CO2 and passaged every 3-5 days. The growth media is Dulbecco's modified eagles medium (DMEM, Gibco Cat#12430-054), containing 25 mM Hepes and supplemented with Fetal Bovine Serum (Hyclone, cat#SH30071.03), 0.1 mM of MEM non-essential amino acids (GIBCO, Cat#11140-050), 1 mM MEM Sodium Pyruvate (GIBCO Cat#11360-070) and 100 units/ml of Penicillin G and 100 μg/ml of Streptomycin (GIBCO Cat#15140-122). The recombinant muscarinic receptor cell lines are grown under antibiotic pressure with media containing 25 μg/ml zeocin and 500 μg/ml G418 (M1-CHO), 4 μg/ml puromycin, 50 μg/ml zeocin and 2.5 μg/ml blasticidin (M2 and M4-CHO) or 50 μg/ml zeocin and 4 μg/ml puromycin (M3 and M5-CHO).
Cells are harvested at 80-90% confluence using Versene (GIBCO Cat#15040-066), collected by centrifugation and seeded 18-24 hrs prior to running the calcium assay at a density of 5,000-10,000 cells/well in […], clear-bottomed 384-well plates (BD Biocoat, poly-D-lysine, Cat#356663). The day of the experiment, the cells are washed with a plate washer (Bioteck Instruments, ELX 405) using bath1 buffer (140-mM NaCl, 4.5-mM KCl, 2-mM CaCl2, 1-mM MgCl2, 10-mM Hepes-Na, 10-mM Glucose, pH 7.4, with NaOH) containing 1 mM Probenecid. Next, the calcium dye Fluo-3 (25 μl/well of Fluo-3 AM at 4 μM, Molecular Probes F-1241, in Bath 1 buffer containing 1 mM Probenecid) is added to the 25 μl of Bath 1 remaining in each well after the plate wash and the dye is loaded at 37° C. in the tissue culture incubator for 60-90 min. The fluorescent dye is removed using the plate washer with Bath 1 containing 1 mM Probenecid, leaving 25 μl/well of this solution after the wash. Alternatively, cells can be loaded with the calcium indicator from Molecular Devices (Calcium 3 Assay Reagents, Cat #R7181) adding 5 μl of a 5× solution dye in Bath 1 containing 1 mM Probenecid (10 ml per dye flask cat#R7182 to generate a solution […]) to 20 μl of the same buffer. After loading for 60 min. the experiment can be run without having to remove the dye.
Compounds are prepared at a 2× fold concentration in a 96-well plate (round bottom, Costar Corning cat#3656), by reconstituting the pre-spotted compounds in bath 1 containing 1 mM probenecid. The final concentration DMSO is 0.5%, and the amount of DMSO is normalized across the assay plate. To determine an agonist action of the compounds on muscarinic receptors, the reconstituted compounds are added (25 μl compound/well) to the cell assay plate (containing 25 μl/well) using the multi-channel robotic system of the FLIPR 3 Instrument (Molecular Devices, Sunnyvale, Calif.). To determine a functional inhibitory action of the compounds on muscarinic receptors, the reconstituted compounds are added (25 μl compound/well) to the assay plate and pre-incubated for 15 min prior to adding 25 μl of Carbachol at 3× the EC80 for each muscarinic subtype. Alternatively, the compounds can be co-applied simultaneously with the agonist. In both assay modes, the fluorescence is recorded for 60 sec (excitation wavelength is […] and emission wavelength 540 nm) using the FLIPR 3 instrument.
The potency, efficacy and selectivity of the muscarinic compounds were evaluated by screening the compound activity across the whole family (M1 to M5 cells).
CHO cells expressing muscarinic receptors (M1 to M5) and containing a gene reporter system β-Lactamase) with transcriptional control mediated by calcium release (NFAT activation). See Zlokarnik, G; Negulescu, P. A.; Knapp, T. E.; Mere, L; Burres, N; Feng, L; Whitney, M; Roemer, K; Tsien, R. Y. Quantitation of transcription and clonal selection of single living cells with β-lactamase as reporter. Science, 1998 Jan. 2, 279(5347):84-8. The cells are grown as monolayers in tissue culture flasks at 37° C. in a humidified atmosphere containing 5% CO2 and passaged every 3-5 days. […]

| SMILES | ACTIVITY (muscarinic modulation activity) |
| --- | --- |
| O=[N+]([O-])c1cccnc1N1CCN(C2CC3CCC2C3)CC1 (stereo not drawn) [Compound 5, 1-(3-nitro-2-pyridyl)-4-norbornan-2-yl-piperazine] | + (exhibited muscarinic modulation activity for at least one muscarinic receptor, M1, M2, M3, M4, at a concentration of greater than 30 μM) |
| Clc1cccnc1N1CCN(C2CC3CCC2C3)CC1 (stereo not drawn) [Compound 7, 1-(3-chloro-2-pyridyl)-4-norbornan-2-yl-piperazine] | +++ (exhibited muscarinic modulation activity for at least one muscarinic receptor, M1, M2, M3, M4, at a concentration of less than 5 μM) |
| Cc1ccc(C#N)c(N2CCN(C3CC4CCC3C4)CC2)n1 (stereo not drawn) [Compound 31, 6-methyl-2-(4-norbornan-2-ylpiperazin-1-yl)-nicotinonitrile] | ++ (exhibited muscarinic modulation activity for at least one muscarinic receptor, M1, M2, M3, M4, at a concentration of between 30 μM and 5 μM) |
| NS(=O)(=O)c1cnccc1N1CCN(CC2CC3CCC2C3)CC1 (stereo not drawn) [Compound 55, 4-[4-(norbornan-2-ylmethyl)piperazin-1-yl]pyridine-3-sulfonamide] | ++ (exhibited muscarinic modulation activity for at least one muscarinic receptor, M1, M2, M3, M4, at a concentration of between 30 μM and 5 μM) |
| N#Cc1ccc(N2CCN(CC3CC4C=CC3C4)CC2)nc1 (stereo not drawn) [Compound 34, 6-[4-(5-bicyclo[2.2.1]hept-2-enylmethyl)piperazin-1-yl]nicotinonitrile] | +++ (exhibited muscarinic modulation activity for at least one muscarinic receptor, M1, M2, M3, M4, at a concentration of less than 5 μM) |
| COc1cc(OC)nc(C2CCN(CC3CC4C=CC3C4)CC2)n1 (stereo not drawn) [Compound 4, 2-[1-(5-bicyclo[2.2.1]hept-2-enylmethyl)-4-piperidyl]-4,6-dimethoxy-pyrimidine] | +++ (exhibited muscarinic modulation activity for at least one muscarinic receptor, M1, M2, M3, M4, at a concentration of less than 5 μM) |
| N#Cc1cccnc1N1CCN(C2CC3CCC(C3)C2)CC1 (stereo not drawn) [Compound 27, 2-[4-(3-bicyclo[3.2.1]octyl)piperazin-1-yl]nicotinonitrile] | + (exhibited muscarinic modulation activity for at least one muscarinic receptor, M1, M2, M3, M4, at a concentration of greater than 30 μM) |
| N#Cc1cccnc1N1CCN(C2CC3CCC2C3)CC1 (stereo not drawn) [Compound 32, 2-(4-norbornan-2-ylpiperazin-1-yl)nicotinonitrile] | + (exhibited muscarinic modulation activity for at least one muscarinic receptor, M1, M2, M3, M4, at a concentration of greater than 30 μM) |
| C1=CC2CC1CC2CN1CCN(c2ccncc2)CC1 (stereo not drawn) [Compound 41, 1-(5-bicyclo[2.2.1]hept-2-enylmethyl)-4-(4-pyridyl)piperazine] | +++ (exhibited muscarinic modulation activity for at least one muscarinic receptor, M1, M2, M3, M4, at a concentration of less than 5 μM) |
| Clc1cncc(Cl)c1N1CCN(CC2CC3C=CC2C3)CC1 (stereo not drawn) [Compound 26, 1-(5-bicyclo[2.2.1]hept-2-enylmethyl)-4-(3,5-dichloro-4-pyridyl)-piperazine] | − |
| N#Cc1nccnc1N1CCN(CC2CCC3CCC2C3)CC1 (stereo not drawn) [Compound 23, 3-[4-(4-bicyclo[3.2.1]octylmethyl)piperazin-1-yl]pyrazine-2-carbonitrile] | − |
| CCOC(=O)N1C2CCC1CC(N1CCN(c3ncccc3F)CC1)C2 (stereo not drawn) [Compound 30, 3-[4-(3-fluoro-2-pyridyl)piperazin-1-yl]-8-azabicyclo[3.2.1]octane-8-carboxylic acid ethyl ester] | +++ (exhibited muscarinic modulation activity for at least one muscarinic receptor, M1, M2, M3, M4, at a concentration of less than 5 μM) |
| c1cc(N2CCN(C3CC4CCC(C4)C3)CC2)ccn1 (stereo not drawn) [Compound 35, 1-(3-bicyclo[3.2.1]octyl)-4-(4-pyridyl)piperazine] | ++ (exhibited muscarinic modulation activity for at least one muscarinic receptor, M1, M2, M3, M4, at a concentration of between 30 μM and 5 μM) |
| C1=CC2CC1CC2CN1CCC(n2nnc3ccccc32)CC1 (stereo not drawn) [Compound 37, 1-[1-(5-bicyclo[2.2.1]hept-2-enylmethyl)-4-piperidyl]-1H-benzotriazole] | + (exhibited muscarinic modulation activity for at least one muscarinic receptor, M1, M2, M3, M4, at a concentration of greater than 30 μM) |
| N#Cc1cccnc1C1CCN(CC2CC3C=CC2C3)CC1 (stereo not drawn) [Compound 54, 2-[1-(5-bicyclo[2.2.1]hept-2-enylmethyl)-4-piperidyl]nicotinonitrile] | +++ (exhibited muscarinic modulation activity for at least one muscarinic receptor, M1, M2, M3, M4, at a concentration of less than 5 μM) |
| CCOC(=O)N1C2CCC1CC(N1CCN(c3nnc(-c4ccccc4)cc3C#N)CC1)C2 (stereo not drawn) [Compound 11, 3-[4-(4-cyano-6-phenyl-pyridazin-3-yl)piperazin-1-yl]-8-azabicyclo[3.2.1]octane-8-carboxylic acid ethyl ester] | + (exhibited muscarinic modulation activity for at least one muscarinic receptor, M1, M2, M3, M4, at a concentration of greater than 30 μM) |
| Cc1nc(N2CCN(CC3CC4CCC3C4)CC2)c(C#N)cc1-c1ccccc1 (stereo not drawn) [Compound 73, 6-methyl-2-[4-(norbornan-2-ylmethyl)piperazin-1-yl]-5-phenyl-nicotinonitrile] | − |
| c1cc(N2CCN(C3CC4CCC3C4)CC2)ccn1 (stereo not drawn) [Compound 18, 1-norbornan-2-yl-4-(4-pyridyl)piperazine] | ++ (exhibited muscarinic modulation activity for at least one muscarinic receptor, M1, M2, M3, M4, at a concentration of between 30 μM and 5 μM) |
| CCOC(=O)N1C2CCC1CC(CN1CCN(c3nccnc3C#N)CC1)C2 (stereo not drawn) [Compound 38, 3-[[4-(3-cyanopyrazin-2-yl)piperazin-1-yl]methyl]-8-azabicyclo[3.2.1]octane-8-carboxylic acid ethyl ester] | +++ (exhibited muscarinic modulation activity for at least one muscarinic receptor, M1, M2, M3, M4, at a concentration of less than 5 μM) |
| N#Cc1ccc(C(F)(F)F)nc1N1CCN(CC2CC3C=CC2C3)CC1 (stereo not drawn) [Compound 53, 2-[4-(5-bicyclo[2.2.1]hept-2-enylmethyl)piperazin-1-yl]-6-(trifluoromethyl)nicotinonitrile] | + (exhibited muscarinic modulation activity for at least one muscarinic receptor, M1, M2, M3, M4, at a concentration of greater than 30 μM) |
| NC(=O)c1cccnc1N1CCN(CC2CC3C=CC2C3)CC1 (stereo not drawn) [Compound 6, 2-[4-(5-bicyclo[2.2.1]hept-2-enylmethyl)piperazin-1-yl]nicotinamide] | − |
